In patent US20240124483A1, “Methods for the Treatment of Fibrotic Disease” (SHY Therapeutics, LLC, priority 2021, published 2024):

Assays:
Smad2/3 phosphorylation = experiment: Phospho-Smad2/3 Inhibition Assay in C2C12 (western blot); assay type: cell-based; conditions: Mus musculus; for IC50: C2C12, TGF-b1 stimulated
Experimental: (§1) Cell lines: Human tumor-derived pancreatic cancer cell line Panc-1 and mouse muscle myoblast C2C12 were purchased from American Type Culture Collection and grown in complete DMEM-High Glucose, supplemented with penicillin (100 U/mL), streptomycin (100 μg/mL), and 10% heat-inactivated FBS at 37° C. in a humidified incubator with 5% CO2.
Method: Cells were plated at 350000 cells/well density in a 12-well plate, allowed 3 hours to adhere to the plate, then starved in the appropriate medium in the presence of 0.5% FBS overnight. The small molecules to be tested were added to the cells in the final concentration of 10 μM in the presence of 0.3% DMSO for 3 hours incubation at 37° C. For IC50 value determination, serial dilutions of compounds were added to cells under the same conditions. Next, Panc-1 cells were stimulated with 10 ng/ml TGF-b1 for 1 hour, and C2C12 cells were stimulated with 10 ng/ml TGF-b1 for 20 minutes (recombinant human TGF-b1, R&D Systems). After stimulation cells were lysed with lysis buffer containing 1% Triton X-100, EDTA, and Halt™ Protease & Phosphatase Inhibitor Cocktail (Thermo Scientific). Protein concentration was assessed by BCA protein assay (Thermo Scientific). Phosphorylation level of Smad2/Smad3 was determined by western blot.
Western blot protocol: Equal amounts of protein (15-50 μg) were separated by SDS-PAGE and transferred to nitrocellulose membranes (Invitrogen by Thermo Fisher Scientific). The membrane was stained with Ponceau S Stain (Boston BioProducts) to verify uniform protein loading. Membranes were blocked with 10% milk and phosphorylation levels of Smad2/Smad3 were assessed by incubating overnight at 4° C. with the following antibodies: Phospho-Smad2 (Ser465/467) and Phosph-Smad3 (Ser423/425), both from Cell Signaling Technology. Then the membranes were incubated with HRP-conjugated secondary antibody (Jackson Immunoresearch, West Grove, PA). Bands were incubated in Amersham ECL Prime Western Blotting Detection Reagent (GE Healthcare) and visualized using the ChemiDoc MP imaging system (Bio-Rad).

JNK = JNK Activation Assay in C2C12 (western blot); assay type: cell-based, mouse; parameters: key: Y = yes; N = No; conditions: at 10 μM
Experimental: as §1
(§2) Method: Cells were plated at 350000 cells/well density in a 12-well plate, allowed 3 hours to adhere to the plate, then starved in the appropriate medium in the presence of 0.5% FBS overnight. The small molecules to be tested were added to the cells in the final concentration of 10 μM in the presence of 0.3% DMSO for 3 hours incubation at 37° C. For IC50 value determination, serial dilutions of compounds were added to cells under the same conditions. […] Protein concentration was assessed by BCA protein assay (Thermo Scientific). Phosphorylation level of JNK was determined by western blot.
(§3) Western blot protocol: Equal amounts of protein (15-50 μg) were separated by SDS-PAGE and transferred to nitrocellulose membranes (Invitrogen by Thermo Fisher Scientific). […] Membranes were blocked with 10% milk and phosphorylation levels of Smad2, Smad3, INK and p38 were assessed by incubating overnight at 4° C. with the following antibody: Phospho-SAPK/JNK (Thr183/Tyr185), from Cell Signaling Technology. […]

MAPK p38 = MAPK p38 Activation Assay in C2C12 (western blot); assay type: cell-based, mouse; parameters: key: Y = yes; N = No; conditions: at 10 μM
Experimental: as §1
as §2, with “MAPK p38” for “JNK”
as §3, with “Smad2/Smad3” for “Smad2, Smad3, INK and p38”, “Phospho-p38 MAPK (Thr180/Tyr182),” for “Phospho-SAPK/JNK (Thr183/Tyr185),”

[1] = Observation for mortality and signs of pain or distress, DBA/2J mice; assay type: in vivo; conditions: male DBA/2J mice, single dose, up to 100 mg/kg
Experimental: Experimental Design: Compound 9 was suspended in 0.5% Hydroxypropyl Methylcellulose (HPMC)/0.1% Tween® 80 to a final concentration of 10 mg/mL. The dosing solutions were prepared prior to the start of the test. Male DBA/2J mice (Jackson Stock No: 000671) were housed in solid bottom cages with standard chow and water ad libitum. Dosing was initiated when animals were 7-8 weeks old. Mice were dosed at a volume of 10 mL/kg by intraperitoneal (IP) injection at 100 mg/kg or vehicle. […] Blood was collected at 15 min, 30 min, 1 h, 2 h, 4 h, 7 h, 16 h, 24 h by cardiac puncture, mixed gently 8 times and put on ice until centrifuged within 30 minutes of collection. The plasma was transferred to a 96-well plate for analysis of test compound levels.

Row | Compound | IC50 (Smad2/3 phosphorylation) [µM] | Activation of JNK in C2C12 (JNK) | Activation of MAPK p38 in C2C12 (MAPK p38) | findings of overt toxicity [1] | inhibition at 10 µM (Smad2/3 phosphorylation; 10 μM, 3 hours, C2C12 stimulated with 10 ng/ml TGF-b1 for 20 minutes, read-out: % inh of Smad2/3 phosphorylation in C2C12) [%]
1 | COCCNc1nc(-c2cn(C)cn2)nc2sc(-c3cccc(OC)c3Cl)c(-c3ccc(OC)cc3)c12 [Compound 8, 6-(2-Chloro-3-methoxyphenyl)-N-(2-methoxyethyl)-5-(4-methoxyphenyl)-2-(1-methyl-1H-imidazol-4-yl)thieno[2,3-d]pyrimidin-4-amine] | 1 to 4.99 | Y | Y | – | –
2 | COCCNc1nc(-c2nccn2C)nc2sc(-c3cccc(OC)c3Cl)c(-c3ccccc3)c12 [Compound 9, 6-(2-Chloro-3-methoxyphenyl)-N-(2-methoxyethyl)-2-(1-methyl-1H-imidazol-2-yl)-5-phenylthieno[2,3-d]pyrimidin-4-amine] | 1 to 4.99 | Y | Y | No findings of overt toxicity were observed | 76 to 100
3 | COc1cccc(Nc2nc(-c3nccn3C)nc3sc(-c4ccn(C(C)C)n4)c(C)c23)c1 [Compound 17, 6-(1-Isopropyl-1H-pyrazol-3-yl)-N-(3-methoxyphenyl)-5-methyl-2-(1-methyl-1H-imidazol-2-yl)thieno[2,3-d]pyrimidin-4-amine] | 5 to 10 | – | – | – | –
4 | COc1cccc(Nc2nc(-c3nccn3C)nc3sc(-c4ccn(C(C)C)n4)c(C)c23)n1 [Compound 18, 6-(1-Isopropyl-1H-pyrazol-3-yl)-N-(6-methoxypyridin-2-yl)-5-methyl-2-(1-methyl-1H-imidazol-2-yl)thieno[2,3-d]pyrimidin-4-amine] | 5 to 10 | – | – | – | –
5 | COc1cc(Nc2nc(-c3nccn3C)nc3sc(-c4ccn(C(C)C)n4)c(C)c23)ncn1 [Compound 19, 6-(1-Isopropyl-1H-pyrazol-3-yl)-N-(6-methoxypyrimidin-4-yl)-5-methyl-2-(1-methyl-1H-imidazol-2-yl)thieno[2,3-d]pyrimidin-4-amine] | > 10 | – | – | – | –
